This experiment relates to B. cepacia. The experiment can be described thus: Pigment formation (virulence suppression). It is filed as cell-based, Burkholderia cepacia.

Consider `O=C(O)CN1C(=O)C(=Cc2ccc(OCc3ccc(Cl)cc3)cc2)SC1=S` [Compound 82], for which the pigment formation entry is on record as “repressing the pigment formation”.

For the origin of these results see patent US20190307729A1, “ANTIMICROBIAL COMPOUNDS AND METHODS FOR USE THEREOF” (VERSITECH LIMITED, priority 2016, published 2019).
